From patent publication US20240299556A1, “Magnolol and Sulforaphane Conjgate, and Preparation Method and Use Thereof” (Shenzhen Zhenxing Biomedicine Research Center Co., Ltd., priority 2019, published 2024)
Read-outs that look alike come from different tables or passages of the source.

What was measured:
Format in all cases: cell-based
[1] = test system: human hepatic normal cell line LO2; test: Apoptosis of normal LO2 cells (apoptosis detection kit, flow cytometry); settings: 24 h
[2] = test system: human gastric cancer cell line AGS; test: Proliferation of AGS cells (CCK8 kit); settings: 24 h
Procedure: (§1) Human glioma cell line U251, human lung cancer cell line H1650, human liver cancer cell line HepG2, human breast cancer cell line MDA-MB-231, human gastric cancer cell line AGS, human colon cancer cell line LOVO, human ovarian cancer cell line OVCAR3. 2.1 Cultivation of the above 7 kinds of cancer cells. The cells, when grow to the logarithmic growth phase, were digested with 0.25% trypsin, centrifuged at 1000×g for 5 min, and the cell pellet were re-suspended with 1640 medium containing 10% FBS and inoculated in a 96-well culture plate at a density of 5000 cells/well, and then cultured overnight at 37° C., 5% CO2 and saturated humidity. 2.2 Each group was set up with 6 duplicate wells, and drugs were added to each well according to the following conditions, and then cultured for 24 h. Positive control groups: […] Sulforaphane added at a final concentration of 5.0 μM; • Positive control group 5: Sulforaphane added at a final concentration of 10.0 μM; • Positive control group 6: Sulforaphane added at a final concentration of 20.0 μM. CT-3 groups: Divided into 3 groups: • CT-3 group 1: CT-3 added at a final concentration of 5.0 μM; • CT-3 group 2: CT-3 added at a final concentration of 10.0 μM; • CT-3 group 3: CT-3 added at a final concentration of 20.0 μM. The above cells were intervened for 24 hours, and then the effects of drugs on tumor cell proliferation were detected by using CCK8 kit.

[3] = test system: human breast cancer cell line MDA-MB-231; test: Proliferation of MDA-MB-231 cells (CCK8 kit); settings: MDA-MB-231, 24 h
Procedure: as §1

[4] = test system: human ovarian cancer cell line OVCAR3; test: Proliferation of OVCAR3 cells (CCK8 kit)
Procedure: as §1

[5] = test system: human lung cancer cell line H1650; test: Proliferation of H1650 cells (CCK8 kit)
Procedure: as §1

[6] = test system: human liver cancer cell line HepG2; test: Proliferation of HepG2 cells (CCK8 kit); settings: HepG2, 24 h
Procedure: as §1

[7] = test system: human glioma cell line U251; test: Proliferation of U251 cells (CCK8 kit)
Procedure: as §1

[8] = test system: seven human cancer cell lines; test: Proliferation of seven human cancer cell lines (CCK8 kit), summary over the panel
Procedure: as §1

[9] = test system: human colon cancer cell line LOVO; test: Proliferation of LOVO cells (CCK8 kit); settings: 24 h
Procedure: as §1

[10] = test system: human lung cancer cell line NCI-H460; test: Apoptosis of NCI-H460 cells (apoptosis detection kit, flow cytometry); settings: NCI-H460, 10.0 μM, 24 h
Procedure: (§2) The cells, when grow to the logarithmic growth phase, were digested with 0.25% trypsin, centrifuged at 1000×g for 5 min, and the cell pellet were re-suspended with 1640 medium containing 10% FBS and inoculated in a 96-well culture plate at a density of 3.0×10^5 cells/well, and then cultured overnight at 37° C., 5% CO2 and saturated humidity. 2.2 Each group was set up with 3 duplicate wells, and drugs were added to each well according to the following conditions, and then cultured for 24 h. […] Sulforaphane added at a final concentration of 10.0 μM. CT-3 group: CT-3 added at a final concentration of 10.0 μM. The above cells were intervened for 24 hours, and then the effect of CT-3 on tumor cell apoptosis was determined by apoptosis detection kit and flow cytometry.

[11] = test system: human colon cancer cell line SW480; test: Apoptosis of SW480 cells (apoptosis detection kit, flow cytometry); settings: SW480, 10.0 μM, 24 h
Procedure: as §2, with “in a 6-well culture plate” for “in a 96-well culture plate”, “group: CT-3 was added at” for “group: CT-3 added at”

[12] = test system: human lung cancer cell line NCI-H460; test: Proliferation of NCI-H460 cells (CCK8 kit)
Procedure: 2.1 Cultivation of NCI-H460 Cells. The Cells, when Grow to the Logarithmic Growth phase, were digested with 0.25% trypsin, centrifuged at 1000×g for 5 min, and the cell pellet were re-suspended with 1640 medium containing 10% FBS and inoculated in a 96-well culture plate at a density of 5000 cells/well, and then cultured overnight at 37° C., 5% CO2 and saturated humidity.
2.2 Six duplicate wells were set in each group, and drugs were added to each well according to the following conditions, and then cultured for 24 h.
Control group: The group without drugs.
Magnolol group: Magnolol added at a final concentration of 20 μM.
CT-1 group: CT-1 added at a final concentration of 20 μM.
CT-2 group: CT-2 added at a final concentration of 20 μM.
CT-3 group: CT-3 added at a final concentration of 20 μM.
The above cells were intervened for 24 hours, and then the effects of drugs on tumor cell proliferation were detected by using CCK8 kit. The specific operations are as follows: […] was added to each well and cultured for 2 h, and then the absorbance (OD) value at a wavelength of 450 nm was measured on a microplate reader, and the cell survival rate of the other groups was calculated on the basis of the cell survival rate of the control group as 100%.

[13] = CCK8, read-out: Half maximal inhibitory concentration (IC50)
[14] = OVCAR-3, OVCAR3, 24 h, CCK8, read-out: Half maximal inhibitory concentration (IC50)
[15] = NCI-H1650, H1650, 24 h, CCK8, read-out: Half maximal inhibitory concentration (IC50)
[16] = U-251, U251, 24 h, CCK8, read-out: Half maximal inhibitory concentration (IC50)
[17] = U251, H1650, HepG2, MDA-MB-231, AGS, LOVO, OVCAR3, 24 h, CCK8, read-out: IC50 against 7 kinds of human cancer cells (range over the panel)
[18] = LOVO, CCK8, read-out: Half maximal inhibitory concentration (IC50)
[19] = NCI-H460, 20 μM, 24 h, CCK8, read-out: Inhibition Rate (%)
[20] = read-out: Half maximal inhibitory concentration (IC50)

C[S+]([O-])CCCCN=C=S (stereo not shown) [Sulforaphane] was tested, and the “Apoptosis Rate (%)” value ([1]; human, 10 μM) was 6.52%, the IC50 [2, 13] was 18.1 µM and the IC50 [3, 13] was 22.2 µM. It also gave an IC50 [4, 14] of 18.4 µM, an IC50 [5, 15] of 22 µM and an IC50 [6, 13] of 21 µM. For the same compound, the IC50 [7, 16] was 22.5 µM, the IC50 [8, 17] was 18.4 to 22.5 µM and the IC50 [9, 18] was 18.5 µM. The “Apoptosis Rate (%)” value [10] was 18.90% and the “Apoptosis Rate (%)” value [11] was 19.99%.

C=CCc1ccc(O)c(-c2cc(CC=C)ccc2OCC[S+]([O-])CCCCN=C=S)c1 (stereo not shown) [CT-3] was tested, and the “Apoptosis Rate (%)” value ([1]; human, 10 μM) was 6.48%, the IC50 [2, 13] was 8.02 µM and the IC50 [3, 13] was 7.48 µM. For the same compound, the IC50 [4, 14] was 5.34 µM, the IC50 [5, 15] was 6.92 µM and the IC50 [6, 13] was 6.24 µM. It also gave an IC50 [7, 16] of 7.75 µM, an IC50 [8, 17] of 5.1 to 8.02 µM and an inhibition at 20 µM [12, 19] of 99%. For the same compound, the IC50 [9, 18] was 5.1 µM, the “Apoptosis Rate (%)” value [10] was 73.82% and the “Apoptosis Rate (%)” value [11] was 61.87%.

For C=CCc1ccc(O)c(-c2cc(CC=C)ccc2O)c1 [Magnolol], the “Apoptosis Rate (%)” value ([1]; normal LO2 cells, 10.0 μM, flow cytometry) was 4.71%, the IC50 [2, 20] was greater than 45 µM and the IC50 [3, 20] was greater than 45 µM. It also gave an IC50 ([4]; OVCAR-3, 24 h, read-out: Half maximal inhibitory concentration (IC50)) greater than 45 µM, an IC50 ([5]; NCI-H1650, 24 h, read-out: Half maximal inhibitory concentration (IC50)) greater than 45 µM and an IC50 [6, 20] greater than 45 µM. The IC50 ([7]; U-251, 24 h, read-out: Half maximal inhibitory concentration (IC50)) was greater than 45 µM, the IC50 ([8]; 24 h, read-out: IC50 against 7 kinds of human cancer cells (range over the panel)) was greater than 45 µM and the inhibition at 20 µM ([12]; NCI-H460, 24 h, read-out: Inhibition Rate (%)) was 1.2%. The IC50 ([9]; LoVo, read-out: Half maximal inhibitory concentration (IC50)) was greater than 45 µM, the “Apoptosis Rate (%)” value [10] was 3.12% and the “Apoptosis Rate (%)” value [11] was 4.02%.

Compound C=CCc1ccc(O)c(-c2cc(CC=C)ccc2OCCS(=O)(=O)CCCCN=C=S)c1 [CT-2] has an inhibition at 20 µM [12, 19] of 70.3%.

For C=CCc1ccc(O)c(-c2cc(CC=C)ccc2OCCSCCCCN=C=S)c1 [CT-1], the inhibition at 20 µM [12, 19] was 18.4%.
